Measurements as given in patent US8586505B2 (SDS Biotech K. K., priority 2009, dated 2013).

Columns and labels:
[1] = test system: Pseudoperonospora cubensis; assay: Test of examining control effect on Pseudoperonospora cubensis (potted cucumber plants); type: in vivo; conditions: 96 h, 10% wettable powder adjusted to 125 ppm, 15 ml/pot sprayed on potted cucumber plants one day before spray inoculation, assessed after 1 day wet chamber and 3 days greenhouse, read-out: Determination of control effect (preventive value) on Pseudoperonospora cubensis
Method in brief: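 Preventive treatment: 125 ppm sample agent solution (from 10% wettable powder) sprayed at 15 ml/pot on 2.5-leaf Sagamihanjiro cucumbers, then P. cubensis inoculated next day at 1.0×10^4 cells/ml. Incubation was 1 day wet at 21° C plus 3 days greenhouse. Lesion area rate compared with untreated gives preventive value (≥60% high).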

[2] = test system: Phytophthora infestans; assay: whole plant or invertebrate; type: in vivo; conditions: in Solanum lycopersicum, 96 h, read-out: Determination of control effect (preventive value)
[3] = test system: Sphaerotheca fuliginea; assay: Test of examining control effect on Sphaerotheca fuliginea (potted cucumber plants); type: in vivo; conditions: Podosphaera fuliginea, 336 h; 10% wettable powder adjusted to 125 ppm, 15 ml/pot sprayed on potted cucumber plants one day before spray inoculation; assessed after 14 days in greenhouse; read-out: Determination of control effect (preventive value) on Sphaerotheca fuliginea
Method in brief: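 Control effect rated high at preventive value 60–100% and low below 60%, from lesion area relative to untreated plants 14 days after spray inoculation with S. fuliginea (1.0×10^5 cells/ml). Compound applied at 125 ppm as wettable-powder spray one day before inoculation, on 2nd-leaf-stage Sagamihanjiro cucumber.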

SMILES	pest or weed control at 125 µg/mL [1]	pest or weed control at 125 ppm [2]	pest or weed control at 125 µg/mL [3]	melting point
CC(C)[Si](C#CCCNc1ncnc2sccc12)(C(C)C)C(C)C [compound 4]	0 to 60%	0 to 60%	0 to 60%	196 to 198 °C
CC(C)(C)[Si](C)(C)C#CCCNc1ncnc2sccc12 [compound 5]	60 to 100%	0 to 60%	60 to 100%	190 to 192 °C
Cc1cccc(C#CCCNc2ncnc3sccc23)c1 [compound 18]	60 to 100%	0 to 60%	60 to 100%	120 to 123 °C
FC(F)(F)c1cccc(C#CCCNc2ncnc3sccc23)c1 [compound 26]	60 to 100%	0 to 60%	60 to 100%	123 to 125 °C
FC(F)(F)c1cc(C#CCCNc2ncnc3sccc23)cc(C(F)(F)F)c1 [compound 28]	0 to 60%	0 to 60%	0 to 60%	163 to 166 °C
O=[N+]([O-])c1cccc(C#CCCNc2ncnc3sccc23)c1 [compound 39]	60 to 100%	60 to 100%		171 to 172 °C
O=[N+]([O-])c1ccc(C#CCCNc2ncnc3sccc23)cc1 [compound 40]	60 to 100%	60 to 100%		184 to 185 °C
Fc1ccc(C#CCCNc2ncnc3sccc23)c(F)c1 [compound 41]	60 to 100%	60 to 100%		177 to 178 °C
Fc1cccc(F)c1C#CCCNc1ncnc2sccc12 [compound 42]	60 to 100%	60 to 100%		179 to 181 °C
Fc1cc(C#CCCNc2ncnc3sccc23)cc(F)c1F [compound 43]	60 to 100%	60 to 100%		158 to 159 °C
C(#Cc1cccnc1)CCNc1ncnc2sccc12 [compound 56]	60 to 100%	0 to 60%		138 to 140 °C
C(#Cc1ccncc1)CCNc1ncnc2sccc12 [compound 57]	0 to 60%	0 to 60%	0 to 60%	140 to 141 °C
Cc1cc(C)nc(C#CCCNc2ncnc3sccc23)n1 [compound 59]	0 to 60%	0 to 60%	0 to 60%	112 to 113 °C
C(#Cc1cncs1)CCNc1ncnc2sccc12 [compound 61]	60 to 100%	60 to 100%	60 to 100%	156 to 158 °C
C(#Cc1nccs1)CCNc1ncnc2sccc12 [compound 62]	60 to 100%	60 to 100%	60 to 100%	128 to 129 °C
C(#Cc1cscn1)CCNc1ncnc2sccc12 [compound 63]	60 to 100%	60 to 100%	60 to 100%	174 °C
Cc1scnc1C#CCCNc1ncnc2sccc12 [compound 65]	60 to 100%	60 to 100%	60 to 100%	148 to 150 °C

SMILES	pest or weed control at 125 µg/mL [1]	pest or weed control at 125 ppm [2]	pest or weed control at 125 µg/mL [3]	melting point
Cc1nc(C#CCCNc2ncnc3sccc23)cs1 [compound 66]	60 to 100%	0 to 60%	0 to 60%	160 to 161 °C
OCc1nc(C#CCCNc2ncnc3sccc23)cs1 [compound 70]	60 to 100%	60 to 100%	60 to 100%	193 °C
CC(=O)OCc1nc(C#CCCNc2ncnc3sccc23)cs1 [compound 73]	60 to 100%	60 to 100%	60 to 100%	128 to 129 °C
C(#Cc1csc(-c2ccccc2)n1)CCNc1ncnc2sccc12 [compound 76, 4-[4-(2-Phenylthiazol-4-yl)-3-butynylamino]thieno[2,3-d]pyrimidine]	60 to 100%	0 to 60%	60 to 100%	134 to 136 °C
C(#Cc1csc(-c2ccco2)n1)CCNc1ncnc2sccc12 [compound 77]		0 to 60%	0 to 60%	53 to 55 °C
C(#Cc1csc(-c2ccoc2)n1)CCNc1ncnc2sccc12 [compound 78]	60 to 100%	0 to 60%	60 to 100%	140 to 142 °C
C(#Cc1csc(-c2ccsc2)n1)CCNc1ncnc2sccc12 [compound 80]	60 to 100%	0 to 60%	60 to 100%	55 to 56 °C
C(#Cc1csc(-c2cccnc2)n1)CCNc1ncnc2sccc12 [compound 81]	60 to 100%	0 to 60%	0 to 60%	175 to 177 °C
C=C(C#CCCNc1ncnc2ccccc12)CO [compound 92]	60 to 100%	60 to 100%	0 to 60%	139 °C
C(#Cc1ccccc1)CCNc1ncnc2ccccc12 [compound 96]	60 to 100%	60 to 100%	60 to 100%	120 to 122 °C
C=C(C)CCc1ccccc1C#CCCNc1ncnc2ccccc12 [compound 105]	60 to 100%	60 to 100%	60 to 100%	92 to 94 °C
CSc1cccc(C#CCCNc2ncnc3ccccc23)c1 [compound 116]	60 to 100%	60 to 100%	60 to 100%	141 to 142 °C
CCOc1ccccc1C#CCCNc1ncnc2ccccc12 [compound 118]	60 to 100%	60 to 100%	60 to 100%	119 to 120 °C
CS(=O)(=O)c1ccc(C#CCCNc2ncnc3ccccc23)cc1 [compound 120]	60 to 100%	60 to 100%	60 to 100%	164 to 165 °C
Cc1ncnc(NC(C)CC#Cc2ccc(Cl)cc2C(F)(F)F)c1Br (stereo not drawn) [compound 387]	60 to 100%	0 to 60%	60 to 100%	
CC(CC#Cc1ccc(Cl)cc1C(F)(F)F)Nc1ncnc(C(F)(F)F)c1Cl (stereo not drawn) [compound 388]	60 to 100%	0 to 60%	60 to 100%	
Cc1ncnc(NC(C)CC#Cc2ccccc2)c1Cl (stereo not drawn) [compound 389]	60 to 100%	0 to 60%	60 to 100%	
